Experimental data published in patent publication US7368570B2, “Organometallic complexes as singlet oxygen sensitizers” (University of Southern California, priority 2003, dated 2008).

How the values were obtained:
[1] = phosphorescence emission properties in solution; format: physicochemical; settings: room temperature, from the phosphorescence spectrum
Description: Table 3 provides quantum yields and singlet oxygen quenching rates for Ir(III) and Pt(II) complexes of this invention. Eem(eV)=the emission maximum energy in eV at room temperature, as determined from the phosphorescence spectrum; ΦPE=the quantum efficiency for emission in solution; τPE=the emission lifetime at room temperature or 77K (in solution).

[2] = quantum yield for singlet oxygen production from 1O2 luminescence at 1268 nm; format: physicochemical; settings: for ΦΔ quantum yield for singlet oxygen generation: benzene, air-saturated; for ΦΔ532 nm: only measured if compounds absorb at 532 nm
Description: The quantum yields for singlet oxygen production (ΦΔ) were obtained by measuring the intensity of the ^1O2 luminescence signal (λmax=1268 nm). Measurements were taken with 355 and 532 nm excitation (λ), in air-saturated solutions.
The quantum yields were obtained by measuring the intensity of the ^1O2 luminescence signal (λmax=1268 nm), with a liquid nitrogen cooled germanium photodiode. Measurements were taken at 355 and 532 nm excitation, in air-saturated solutions, with TPP, C60 and Perinaphthenone as references. The optical density of the photosensitizer solutions was generally kept between 0.05 and 0.4 at 355 nm excitation wavelength, and 0.03 and 0.2 at 532 nm excitation wavelength.

[3] = solubility; format: physicochemical
Procedure: (§1) TPP in benzene or chloroform with OD 0.5-0.7 was used as blank/solvent solution to produce singlet oxygen. The intensity of ^1O2 luminescence signals was measured at 532 nm excitation in air-saturated solutions with a liquid nitrogen cooled germanium photodiode at 1268 nm. 0.02-0.5 mL quencher stock solution of Ir(III) complexes in […] was added to the blank solution. The decay trace of singlet oxygen was then re-measured, and the additions repeated 6-10 times. Singlet oxygen quenching rate constants by the Ir(III) complexes were obtained from the slopes of Stern Volmer plots (See FIG. 7).

[4] = from references (footnote e), cited from earlier work; for λem: emission
[5] = singlet oxygen luminescence quenching rate constants; format: physicochemical; settings: for kq singlet oxygen quenching rate: Table 3, not marked MeOD, TPP in benzene or chloroform
Procedure: as §1

[6] = 355 nm, reference value; cited from earlier work
[7] = oxidation and excited state redox potentials; format: physicochemical
[8] = 355 nm excitation, Table 3, not marked MeOD

Molecule	Eem emission maximum energy [1] [eV]	ΦΔ355 nm [2, 8]	ΦΔ532 nm ([2]; 532 nm excitation)	λem [4] [nm]	kq singlet oxygen quenching rate [5]	also measured
NCC(=O)[O][Ir]([c]1ccc2ccccc2c1-c1nc2ccccc2s1)[c]1ccc2ccccc2c1-c1nc2ccccc2s1 [BSN-G, iridium(III) bis(2-(1-naphthyl)benzothiazolato-N,C^2)glycinate]	2.05	0.54 ± 0.02	0.81 ± 0.06	606	(2.1 ± 0.5) × 10^6 M^−1s^−1	ΦΔ quantum yield for singlet oxygen generation ([2]; 355 nm excitation): 0.54 ± 0.02; ΦΔ355 nm ([2]; 355 nm excitation, measured in MeOD): 0.62 ± 0.05; ΦΔ quantum yield for singlet oxygen generation ([2]; 532 nm excitation): 0.81 ± 0.06; solubility remark ([3]; line marked measured in MeOD): Not soluble
CC(=Nc1cc(C)cc(C)c1)C(C)=Nc1cc(C)cc(C)c1.[CH3][Pt][CH3] [(CyPh2)PtMe2]	–	0	0	–	(1.5 ± 0.1) × 10^9 M^−1s^−1	–
CC(=O)C=C(C)[O][Ir]([c]1ccccc1-c1nc2ccccc2o1)[c]1ccccc1-c1nc2ccccc2o1 [(bo)2Ir(acac)]	2.36	0.76 ± 0.06	–	525	(1.8 ± 0.3) × 10^5 M^−1s^−1	ΦPE quantum efficiency for emission in solution [4]: 0.25
[CH3][Pt][CH3].c1ccc(-c2ccccn2)nc1 [(bpy)PtMe2]	–	0	0	–	(2.4 ± 0.1) × 10^9 M^−1s^−1	–
O=C1C=Cc2cccc3cccc1c23 [Perinaphthenone]	–	–	–	–	–	ΦΔ of reference for quantum yield measurements [6]: 0.95
c1ccc(-c2cccc[c]2[Ir]([c]2ccccc2-c2ccccn2)[c]2ccccc2-c2ccccn2)nc1 [(ppy)3Ir, Tris-(2-phenylpyridinato, N, C^2′) iridium (III)]	–	0.92 ± 0.07	–	–	–	solubility remark ([3]; Table 3, not marked MeOD): Not soluble; E(Sen^+/*) excited state redox potential ([7]; vs. NHE, E00 estimated using Eem): −1.45 V; E(Sen^+/0) oxidation potential ([7]; vs. ferrocene/ferrocenium): 0.32 V
[CH3][Pt]1([CH3])[N]2C=CC=c3ccc4c(c32)[N]1C=CC=4 [(Phen)PtMe2]	–	0	0	–	(2.0 ± 0.2) × 10^9 M^−1s^−1	–
c12c3c4c5c1c1c6c7c2c2c8c3c3c9c4c4c%10c5c5c1c1c6c6c%11c7c2c2c7c8c3c3c8c9c4c4c9c%10c5c5c1c1c6c6c%11c2c2c7c3c3c8c4c4c9c5c1c1c6c2c3c41 [Photosensitizer C60]	–	–	–	–	–	ΦΔ of reference for quantum yield measurements [6]: 0.76
CC1=CC(c2ccccc2)=c2ccc3c4c2[N]1[Pt]([CH3])([CH3])[N]4C(C)=CC=3c1ccccc1 [(PhenPh2)PtMe2]	–	0	0	–	(1.7 ± 0.2) × 10^9 M^−1s^−1	–
iridium(III) bis(2-phenylbenzothiazolato-N, C^2)pyridyl chloride [BT-py]	2.23	0.95 ± 0.09	1.00 ± 0.09	558	–	singlet oxygen quantum yield / production, in words [2]: high quantum yield; ΦΔ quantum yield for singlet oxygen generation ([2]; 355 nm excitation): 0.95 ± 0.09; ΦΔ quantum yield for singlet oxygen generation ([2]; 532 nm excitation): 1.00 ± 0.09; singlet oxygen quenching, in words [5]: no measurable singlet oxygen quenching; kq(^1O2) singlet oxygen quenching rate ([5]; benzene): None
